The source of these data is patent US9387200B2, “Isothiazole-pyridine derivatives as modulators of HIF (hypoxia inducible factor) activity” (FibroGen, Inc., priority 2008, dated 2016).

T1 sequence (Q9GZT9 whole entry, species assumed): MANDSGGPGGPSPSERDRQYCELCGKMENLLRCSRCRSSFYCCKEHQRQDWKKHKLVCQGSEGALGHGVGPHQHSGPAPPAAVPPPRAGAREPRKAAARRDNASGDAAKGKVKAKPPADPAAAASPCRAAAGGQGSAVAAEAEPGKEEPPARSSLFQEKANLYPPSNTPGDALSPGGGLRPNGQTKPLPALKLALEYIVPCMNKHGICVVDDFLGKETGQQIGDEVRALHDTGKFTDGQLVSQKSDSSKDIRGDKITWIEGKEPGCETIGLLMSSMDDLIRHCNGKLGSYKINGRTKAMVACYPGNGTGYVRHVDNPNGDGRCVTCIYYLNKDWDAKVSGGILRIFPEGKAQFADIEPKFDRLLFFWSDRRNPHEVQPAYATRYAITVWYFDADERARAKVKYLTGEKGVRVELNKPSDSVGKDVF

The first assay concerns the target T1, HIF-PH2 (Homo sapiens, UniProt Q9GZT9).
T1 construct: made in house; host or cells: insect Hi5 cells
The experiment in a line: HIF-PH assay (14CO2 capture, peptide-dependent turnover). To be noted: compound concentration 22.22 μM. The assay is classed as biochemical. From the text: Ketoglutaric acid α-[1-^14C]-sodium salt, alpha-ketoglutaric acid sodium salt, and HPLC purified peptide may be obtained from commercial sources, e.g., Perkin-Elmer (Wellesley Mass.), Sigma-Aldrich, and SynPep Corp. (Dublin Calif.), respectively. Peptides for use in the assay may be fragments of HIFα as described above or as disclosed in International Publication WO 2005/118836, incorporated by reference herein. For example, a HIF peptide for use in the HIF-PH assay is [methoxycoumarin]-DLDLEALAPYIPADDDFQL-amide. HIF-PH, e.g., HIF-PH2 (EGLN1), can be expressed in, e.g., insect Hi5 cells, and partially purified, e.g., through a SP ion exchange chromatography column. Enzyme activity is determined by capturing ^14CO2 using an assay described by Kivirikko and Myllyla (1982, Methods Enzymol. 82:245-304). Assay reactions contain 50 mM HEPES (pH 7.4), 100 μM α-ketoglutaric acid sodium salt, 0.30 μCi/mL ketoglutaric acid α-[1-^14C]-sodium salt, 40 μM FeSO4, 1 mM ascorbate, 1541.8 units/mL Catalase, with or without 50 μM peptide substrate and various concentrations of compound of the invention. Reactions are initiated by addition of HIF-PH enzyme.
The peptide-dependent percent turnover is calculated by subtracting percent turnover in the absence of peptide from percent turnover in the presence of substrate peptide. Percent inhibition and IC50 are calculated using peptide-dependent percent turnover at given inhibitor concentrations. Calculation of IC50 values for each inhibitor is conducted using GraFit software (Erithacus Software Ltd., Surrey UK).
Representative compounds of the invention were analyzed using the HIF-PH assay described above. Table I below presents enzyme inhibition data for exemplary compounds against HIF-PH2, a representative HIF prolyl hydroxylase enzyme. By inhibiting HIF prolyl hydroxylase enzymes, compounds of the invention stabilize HIFα, which then combines with HIFβ to form an active transcription factor that increases expression of various genes involved in numerous beneficial cellular processes.
As a reminder, the inhibition is how much of the control response was suppressed. The molecule `Cc1nsc2c(O)c(C(=O)NCC(=O)O)nc(-c3cnccn3)c12` [Example 41, [(7-Hydroxy-3-methyl-4-pyrazin-2-yl-isothiazolo[4,5-c]pyridine-6-carbonyl)-amino]-acetic acid] had an inhibition at 22.22 µM of 98%.

Regarding `O=C(O)CNC(=O)c1nc(-c2ccccc2)c2c(Cn3ccc4ccccc43)nsc2c1O` [Example 42, [(7-Hydroxy-3-indol-1-ylmethyl-4-phenyl-isothiazolo[4,5-c]pyridine-6-carbonyl)-amino]-acetic acid], the inhibition at 22.22 µM turned out to be 100%.

`O=C(O)CNC(=O)c1ncc2snc(-c3ccccc3)c2c1O` [Example 43, [(4-Hydroxy-3-phenyl-isothiazolo[5,4-c]pyridine-5-carbonyl)-amino]-acetic acid]: the inhibition at 22.22 µM came out at 97%.

`Cc1nc(C(=O)NCC(=O)O)c(O)c2c(-c3ccccc3)nsc12` [Example 44, [(4-Hydroxy-7-methyl-3-phenyl-isothiazolo[5,4-c]pyridine-5-carbonyl)-amino]-acetic acid] gave an inhibition at 22.22 µM of 91%.

In turn, `O=C(O)CNC(=O)c1nc(-c2ccccc2)c2snc(-c3ccccc3)c2c1O` [Example 45, [(4-Hydroxy-3,7-diphenyl-isothiazolo[5,4-c]pyridine-5-carbonyl)-amino]-acetic acid] had an inhibition at 22.22 µM of 97%.

Staying with this assay, now noted: compound concentration 200 μM.
For `CCc1nc(C(=O)NCC(=O)O)c(O)c2c(C)nsc12` [Example 46, [(7-Ethyl-4-hydroxy-3-methyl-isothiazolo[5,4-c]pyridine-5-carbonyl)-amino]-acetic acid], the inhibition at 200 µM worked out at 99%.

On to `CCc1nc(C(=O)NCC(=O)O)c(O)c2snc(C)c12` [Example 47, [(4-Ethyl-7-hydroxy-3-methyl-isothiazolo[4,5-c]pyridine-6-carbonyl)-amino]-acetic acid], for which 200 µM produced 99% inhibition.
